Experimental data from US5441941A, “1,2-dihydroellipticines with activity against CNS specific cancer” (The United States of America as represented by the …, priority 1993, dated 1995).

Legend:
DMS 114 = assay: cells; details: Homo sapiens; for GI50: DMS-114; for IC (TGI): DMS-114, read-out: TGI
HOP-18 = assay: NCI in vitro screen, SRB percent growth, Non-Small Cell Lung Cancer
A498 = assay: NCI in vitro screen, SRB percent growth, Renal Cancer
DMS 273 = assay: NCI in vitro screen, SRB percent growth, Small Cell Lung Cancer
NCI-H522 = assay: NCI in vitro screen, SRB percent growth, Non-Small Cell Lung Cancer
HOP-92 = assay: cells; details: Homo sapiens
RXF-393 = assay: NCI in vitro screen, SRB percent growth, Renal Cancer
SR = assay: NCI in vitro screen, SRB percent growth, Leukemia
SN12C = assay: NCI in vitro screen, SRB percent growth, Renal Cancer
NCI-H226 = assay: cells; details: Homo sapiens
NCI-H322M = assay: NCI in vitro screen, SRB percent growth, Non-Small Cell Lung Cancer
OVCAR-4 = assay: NCI in vitro screen, SRB percent growth, Ovarian Cancer
[1] = Log10 Concentration -4.0, 100 µM
[2] = Log10 Concentration -7.0, 0.1 µM
[3] = HOP-92, read-out: Percent Growth
[4] = NCI-H226, read-out: Percent Growth

COc1ccc2[nH]c3c(C)c4c(c(C)c3c2c1)CN(C)C=C4 [Formula VII]
GI50 (DMS 114): 0.183 µM
IC (TGI) (DMS 114): 1.7 µM
Percent Growth (HOP-18; [1]): -6%
Percent Growth (HOP-18; Log10 Concentration -5.0): 71%
Percent Growth (HOP-18; Log10 Concentration -6.0, 1 µM): 121%
Percent Growth (HOP-18; [2]): 142%
Percent Growth (HOP-18; Log10 Concentration -8.0): 174%
TGI (HOP-18; PG=0): 82.8 µM
GI50 (HOP-18; PG=+50): 18.8 µM
CC50 (HOP-18; read-out: LC-50, PG=-50): > 100 µM
Percent Growth (A498; [1]): -3%
Percent Growth (A498; Log10 Concentration -5.0): 54%
Percent Growth (A498; Log10 Concentration -6.0, 1 µM): 93%
Percent Growth (A498; [2]): 114%
Percent Growth (A498; Log10 Concentration -8.0): 105%
TGI (A498; PG=0): 90.2 µM
GI50 (A498; PG=+50): 11.6 µM
CC50 (A498; read-out: LC-50, PG=-50): > 100 µM
TGI (DMS 273; PG=0): 13.4 µM
GI50 (DMS 273; PG=+50): 0.827 µM
Percent Growth (NCI-H522; [1]): -46%
Percent Growth (NCI-H522; Log10 Concentration -5.0): -30%
Percent Growth (NCI-H522; Log10 Concentration -6.0, 1 µM): 40%
Percent Growth (NCI-H522; [2]): 91%
Percent Growth (NCI-H522; Log10 Concentration -8.0): 97%
TGI (NCI-H522; PG=0): 3.71 µM
GI50 (NCI-H522; PG=+50): 0.626 µM
CC50 (NCI-H522; read-out: LC-50, PG=-50): > 100 µM
GI50 (HOP-92; HOP-92): 5.97 µM
CC50 (HOP-92; HOP-92, read-out: LC-50): 86.8 µM
activity at 0.01 µM (HOP-92; [3]): 121%
activity at 0.1 µM (HOP-92; [3]): 100%
activity at 1 µM (HOP-92; [3]): 95%
activity at 10 µM (HOP-92; [3]): 37%
activity at 100 µM (HOP-92; [3]): -56%
IC (TGI) (HOP-92; HOP-92, read-out: TGI): 25.1 µM

Cc1ccc2[nH]c3c(C)c4c(c(C)c3c2c1)CN(C)C=C4 [Formula XI]
Percent Growth (RXF-393; [1]): -92%
Percent Growth (RXF-393; Log10 Concentration -5.0): 9%
Percent Growth (RXF-393; Log10 Concentration -6.0, 1 µM): 51%
Percent Growth (RXF-393; [2]): 96%
Percent Growth (RXF-393; Log10 Concentration -8.0): 99%
TGI (RXF-393; PG=0): 12.3 µM
GI50 (RXF-393; PG=+50): 1.04 µM
CC50 (RXF-393; read-out: LC-50, PG=-50): 38.5 µM
Percent Growth (SR; [1]): -42%
Percent Growth (SR; Log10 Concentration -5.0): 6%
Percent Growth (SR; Log10 Concentration -6.0, 1 µM): 47%
Percent Growth (SR; [2]): 86%
Percent Growth (SR; Log10 Concentration -8.0): 101%
TGI (SR; PG=0): 13.5 µM
GI50 (SR; PG=+50): 0.846 µM
CC50 (SR; read-out: LC-50, PG=-50): > 100 µM
Percent Growth (SN12C; [1]): -92%
Percent Growth (SN12C; Log10 Concentration -5.0): -69%
Percent Growth (SN12C; Log10 Concentration -6.0, 1 µM): -36%
Percent Growth (SN12C; [2]): 66%
Percent Growth (SN12C; Log10 Concentration -8.0): 92%
TGI (SN12C; PG=0): 0.442 µM
GI50 (SN12C; PG=+50): 0.143 µM
CC50 (SN12C; read-out: LC-50, PG=-50): 2.65 µM
GI50 (DMS 114): 0.414 µM
IC (TGI) (DMS 114): 2.12 µM
GI50 (NCI-H226; NCI-H226): 0.329 µM
CC50 (NCI-H226; NCI-H226, read-out: LC-50): 17.4 µM
activity at 0.01 µM (NCI-H226; [4]): 99%
activity at 0.1 µM (NCI-H226; [4]): 83%
activity at 1 µM (NCI-H226; [4]): 19%
activity at 10 µM (NCI-H226; [4]): -43%
activity at 100 µM (NCI-H226; [4]): -71%
IC (TGI) (NCI-H226; NCI-H226, read-out: TGI): 2.02 µM
Percent Growth (NCI-H322M; [1]): -100%
Percent Growth (NCI-H322M; Log10 Concentration -5.0): 10%
Percent Growth (NCI-H322M; Log10 Concentration -6.0, 1 µM): 99%
Percent Growth (NCI-H322M; [2]): 139%
Percent Growth (NCI-H322M; Log10 Concentration -8.0): 133%
TGI (NCI-H322M; PG=0): 12.3 µM
GI50 (NCI-H322M; PG=+50): 3.55 µM
CC50 (NCI-H322M; read-out: LC-50, PG=-50): 35.1 µM
Percent Growth (OVCAR-4; [1]): -85%
Percent Growth (OVCAR-4; Log10 Concentration -5.0): -6%
Percent Growth (OVCAR-4; Log10 Concentration -6.0, 1 µM): 68%
Percent Growth (OVCAR-4; [2]): 96%
Percent Growth (OVCAR-4; Log10 Concentration -8.0): 113%
TGI (OVCAR-4; PG=0): 8.34 µM
GI50 (OVCAR-4; PG=+50): 1.74 µM
CC50 (OVCAR-4; read-out: LC-50, PG=-50): 36.3 µM
